Entries after “also recorded” stand apart in the source; their conditions may differ. Read-outs that look alike come from different tables or passages of the source.
What was measured:
[1] = system: cerebral granule neurons; conditions: cited from earlier work
[2] = system: CYP3A4/5; conditions: human liver microsomes and recombinantly-expressed CYPs
[3] = Phase 1 drug-drug interaction study: omaveloxolone alone and with itraconazole in healthy subjects
[4] = system: CYP3A4/5; test: in vitro; conditions: human, human liver microsomes
[5] = Hygroscopicity of RTA 408 solid forms (DVS, TGA-MS); assay type: physicochemical
[6] = cited from earlier work
[7] = Drug-drug interaction study: bardoxolone methyl alone and with itraconazole in healthy volunteers; conditions: itraconazole alone, 200 mg daily (Period 2)
[8] = Chemical stability of RTA 408 amorphous form in organic solvents and aqueous media; assay type: physicochemical; conditions: 1 mg/mL; acetone, EtOAc, MeOH, MeCN, 1% aq. Tween 80, SDS, CTAB; 6 h, 24 h, 2 d, 7 d
Method: The chemical stability of the amorphous form was investigated in organic solvents, including acetone, EtOAc, MeOH, and MeCN, as well as different aqueous media (e.g., 1% aq. Tween 80, 1% aq. SDS, 1% aq. CTAB) at a concentration of 1 mg/mL at time points 6 h, 24 h, 2 d, and 7 d.

[9] = Storage stability of RTA 408 amorphous form under elevated temperature and humidity (PXRD); assay type: physicochemical; conditions: open at 25° C./62% r.h. and 40° C./75% r.h., closed at 60° C. and 80° C., up to four weeks
Method: In addition, the stability of the amorphous form was investigated by storage under elevated temperature and humidity conditions (open at 25° C./62% r.h. and 40° C./75% r.h. and closed at 60° C. and 80° C.). After one week, two weeks, and four weeks, the stored samples were analyzed by PXRD.

[10] = cited from earlier work; for Occurrence of Death / Occurrence of ESRD: ITT
[11] = monkey, in vivo; cited from earlier work
[12] = system: HIV; conditions: macrophages; cited from earlier work
[13] = 150 mg omaveloxolone alone (Reference), plasma
[14] = 200 mg itraconazole QD + 150 mg omaveloxolone (Test), plasma
[15] = Test vs Reference statistical analysis
[16] = Test: 200 mg itraconazole QD + 150 mg omaveloxolone, n = 13
[17] = omaveloxolone + itraconazole vs omaveloxolone alone
[18] = ASCEND, avosentan 25 mg (N = 455)
[19] = ASCEND, avosentan 50 mg (N = 478)

For CC1(C)CC[C@]2(NC(=O)C(C)(F)F)CC[C@]3(C)[C@H](C(=O)C=C4[C@@]5(C)C=C(C#N)C(=O)C(C)(C)[C@@H]5CC[C@]43C)[C@@H]2C1 [Omaveloxolone], the “Protection from hydrogen peroxide-induced oxidative stress” value [1] is given as “significant protection”, the Metabolizing enzyme [2] is given as “metabolized by CYP3A4” and the “AUC0-t, geometric mean” value [3, 13] is given as 1730 ng·h/mL. For the same compound, the “AUC0-∞, geometric mean” value [3, 13] was 1730 ng·h/mL, the “CL/F, geometric mean” value [3, 13] was 86.7 L/h and the “Cmax, geometric mean” value [3, 13] was 43.0 ng/mL. The “t1/2, geometric mean” value [3, 13] was 89.8 h, the “Increase in systemic exposure, AUC0-∞, with itraconazole” value ([3]; 150 mg, itraconazole 200 mg QD) was “approximately 4 fold” and the “Increase in systemic exposure, Cmax, with itraconazole” value ([3]; 150 mg, itraconazole 200 mg QD) was about 3 fold. For the same compound, the “Ratio (90% CI) of geometric LS means, AUC0-∞ (with itraconazole vs alone)” value ([3]; 150 mg, itraconazole 200 mg QD) was 4.12 (3.48, 4.87), the “Ratio (90% CI) of geometric LS means, Cmax (with itraconazole vs alone)” value ([3]; 150 mg, itraconazole 200 mg QD) was 2.77 (2.17, 3.54) and the “AUC0-t, geometric mean” value [3, 14] was 6340 ng·h/mL. The “AUC0-∞, geometric mean” value [3, 14] was 7280 ng·h/mL, the “CL/F, geometric mean” value [3, 14] was 20.6 L/h and the “Cmax, geometric mean” value [3, 14] was 116 ng/mL. For the same compound, the “t1/2, geometric mean” value [3, 14] was 78.1 h, the “AUC0-∞, GLSM” value ([3]; Reference: 150 mg omaveloxolone alone, n = 14) was 1730 ng·h/mL and the “Cmax, GLSM” value ([3]; Reference: 150 mg omaveloxolone alone, n = 15) was 43.0 ng/mL. The “AUC0-∞, Within-subject CV %” value [3, 15] was 24.4%, the “Cmax, Within-subject CV %” value [3, 15] was 36.8% and the “AUC0-∞, GLSM” value [3, 16] was 7130 ng·h/mL. The “Cmax, GLSM” value [3, 16] was 119 ng/mL, the half-life ([3]; both, human, plasma, oral, 150 mg) was 89.8 h and the Tmax ([3]; both, human, plasma, oral, 150 mg, Median Tmax (min-max), 150 mg single dose, alone) was 12 h. The Tmax ([3]; both, human, plasma, oral, 150 mg, tmax, median, Reference: 150 mg omaveloxolone alone, n = 15, Wilcoxon signed rank analysis) was 8 h, the Tmax ([3]; both, human, plasma, oral, Median Tmax (min-max), 150 mg co-administered with 200 mg itraconazole QD) was 6 h and the Tmax ([3]; both, human, plasma, oral, tmax, median, Test: 200 mg itraconazole QD + 150 mg omaveloxolone, n = 13, Wilcoxon signed rank analysis) was 6 h. The “Within-subject variability of AUC0-∞, geometric CV %” value ([3]; human, in vivo) was 24.4%, the “Within-subject variability of Cmax, geometric CV %” value ([3]; human, in vivo) was 36.8% and the “AUC0-∞, Ratio of GLSMs (Test:Reference)” value [3, 17] was 4.12. For the same compound, the “Cmax, Ratio of GLSMs (Test:Reference)” value [3, 17] was 2.77, the “Subjects reporting TEAEs” value ([3]; omaveloxolone alone, 15 subjects) was 2 subjects and the “Subjects reporting TEAEs” value ([3]; omaveloxolone in combination with itraconazole) was “no subjects reported TEAEs”. For the same compound, the “Clinical laboratory evaluations, vital signs, ECG parameters” value ([3]; whole study) was “no clinically significant findings”, the “Deaths or SAEs” value ([3]; whole study) was “no deaths or SAEs” and the Km [4] was 1.12 µM.
In the case of CC1(C)CC[C@]2(NC(=O)C(C)(F)F)CC[C@]3(C)[C@H](C(=O)C=C4[C@@]5(C)C=C(C#N)C(=O)C(C)(C)[C@@H]5CC[C@]43C)[C@@H]2C1, the “Hygroscopicity, mass gain” value ([5]; from 50% r.h. to 85% r.h.) is reported as about 0.7 wt.-%.
For CCC(C)n1ncn(-c2ccc(N3CCN(c4ccc(OCC5COC(Cn6cncn6)(c6ccc(Cl)cc6Cl)O5)cc4)CC3)cc2)c1=O (stereo not shown) [itraconazole], the “Peak plasma level at steady state” value ([6]; 100 mg once daily) is listed as 0.5 µg/mL, the “Peak plasma level at steady state” value ([6]; 200 mg once daily) is listed as 1.1 µg/mL and the “Peak plasma level at steady state” value ([6]; 200 mg twice daily) is listed as 2.0 µg/mL. For the same compound, the “Renal excretion of itraconazole and hydroxy-itraconazole” value ([6]; in vivo) was “less than 1 % of an intravenous dose”, the “Time to peak steady state” value ([6]; repeated administration) was “about 15 days” and the “Subjects with a TEAE, n (%)” value [7] was 1 (6.7%).
For CC1(C)CC[C@]2(NC(=O)C(C)(F)F)CC[C@]3(C)[C@H](C(=O)C=C4[C@@]5(C)C=C(C#N)C(=O)C(C)(C)[C@@H]5CC[C@]43C)[C@@H]2C1 [RTA 408 amorphous form], the “Chemical stability, decomposition” value [8] was “Decomposition ≥1% was observed only for solutions in MeCN after 7 days and for suspensions in the 1% aqueous Tween 80 medium”, the “Stability under elevated temperature and humidity conditions” value [9] was “stable for at least four weeks; also recorded: None of the samples differed from the amorphous starting material” and the “Hygroscopicity, Δm” value ([5]; DVS, 50%→85% r.h.) was “+0.4%”.
In the case of COc1ccccc1Oc1c(NS(=O)(=O)c2ccc(C)cn2)nc(-c2ccncc2)nc1OC [avosentan], the “Occurrence of Death” value [10, 18] is given as 3.6%, the “Occurrence of ESRD” value [10, 18] is given as 4.4% and the “Occurrence of Death” value [10, 19] is given as 4.6%. For the same compound, the “Occurrence of ESRD” value [10, 19] was 5.0%, the Death ([10]; ASCEND) was “modest, non-significant increase in death” and the ESRD events ([10]; ASCEND) was “small, numerical reduction in ESRD events”. The “Risk of congestive heart failure (CHF)” value ([10]; human, in vivo) was “approximate three-fold increase”.
For COC(=O)[C@]12CCC(C)(C)C[C@H]1[C@H]1C(=O)C=C3[C@@]4(C)C=C(C#N)C(=O)C(C)(C)[C@@H]4CC[C@@]3(C)[C@]1(C)CC2 [Form B CDDO-Me], the Oral bioavailability [11] is listed as “higher than that of Form A”.
For CC1(C)CC[C@]2(C(=O)O)CC[C@]3(C)[C@H](C(=O)C=C4[C@@]5(C)C=C(C#N)C(=O)C(C)(C)[C@@H]5CC[C@]43C)[C@@H]2C1 [CDDO, 2-cyano-3,12-dioxooleane-1,9(11)-dien-28-oic acid], the “Replication of HIV” value [12] is given as “can inhibit the replication of HIV in macrophages”.

Reference: patent publication US20240293351A1, “METHODS OF ADMINISTERING SYNTHETIC TRITERPENOIDS” (REATA PHARMACEUTICALS HOLDINGS, LLC, priority 2020, published 2024)
